Test results published in US20020040005A1, “Composition and method of treating cancer” (priority 1995, published 2002).

How the values were obtained:
[1] = tested on: 12-O-tetradecanoyl-phorbol-13-acetate (TPA) effects in mouse epidermis; conditions: applied topically to mouse skin; cited from earlier work
[2] = tested on: skin tumors promoted by TPA; conditions: two-step initiation-promotion protocol; cited from earlier work
[3] = tested on: HeLa cells; conditions: cited from earlier work; for cell growth: in vitro, dose dependently
[4] = tested on: Raji lymphoma cells; conditions: cited from earlier work; for cell growth: in vitro, dose dependently
[5] = tested on: Carcinoma of penis; assay: Clinical experimental trials in Cuba, voluntary patients: carcinoma of penis; format: in vivo, human; conditions: Patient #11, metastasized, terminal; maximum levels after surgery, one year
Description: (§1) The following clinical data was collected on voluntary patients during clinical experimental trials in Cuba. A 10% concentration of tannic acid was used in all of the clinical studies set forth below.

[6] = tested on: Carcinoma of the uterus; assay: Clinical experimental trials in Cuba, voluntary patients: carcinoma of the uterus; format: in vivo, human; conditions: for clinical outcome: one year
Description: as §1

[7] = tested on: Hypernephroma (Cancer of Kidney); assay: Clinical experimental trials in Cuba, voluntary patients: hypernephroma; format: in vivo, human
Description: as §1

[8] = tested on: Cancerous Lesion of the Tongue; assay: Clinical experimental trials in Cuba, voluntary patients: cancerous lesion of the tongue; format: in vivo, human; conditions: Patient #10, conventional treatment ineffective; 3 months at stage 1 dosage
Description: as §1

[9] = tested on: Liposarcoma of the right thigh; assay: Clinical experimental trials in Cuba, voluntary patients: liposarcoma; format: in vivo, human; conditions: Patient #18, two unsuccessful operations; maximum levels, one year
Description: as §1

[10] = tested on: Carcinoma of the Bladder; assay: Clinical experimental trials in Cuba, voluntary patients: carcinoma of the bladder; format: in vivo, human
Description: as §1

[11] = tested on: Hodgkin's Lymphoma; assay: Clinical experimental trials in Cuba, voluntary patients: Hodgkin's lymphoma; format: in vivo, human; conditions: Patient #14, chemotherapy discontinued, considered terminal; one year
Description: as §1

[12] = tested on: Monoblastic Leukemia; assay: Clinical experimental trials in Cuba, voluntary patients: monoblastic leukemia; format: in vivo, human; conditions: Patient #17, no improvement with chemotherapy; maximum levels, one year
Description: as §1

[13] = tested on: Colon Carcinoma; assay: Clinical experimental trials in Cuba, voluntary patients: colon carcinoma; format: in vivo, human
Description: as §1

[14] = tested on: Prostate Carcinoma; assay: Clinical experimental trials in Cuba, voluntary patients: prostate carcinoma; format: in vivo, human; conditions: 10% tannic acid
Description: as §1

[15] = tested on: Acute Lymphocytic Leukemia; assay: Clinical experimental trials in Cuba, voluntary patients: acute lymphocytic leukemia; format: in vivo, human; conditions: for time to relapse after completion of therapy: leukemia cells encysted in the testes
Description: as §1

[16] = tested on: epidermal PAH metabolism, PAH-induced skin tumorigenesis; conditions: applied topically to Sencar mice; cited from earlier work
[17] = tested on: Breast carcinoma; assay: Clinical experimental trials in Cuba, voluntary patients: breast carcinoma; format: in vivo, human; conditions: for clinical outcome: terminal
Description: as §1

[18] = tested on: Multiple Myelomas; assay: Clinical experimental trials in Cuba, voluntary patients: multiple myelomas; format: in vivo, human
Description: as §1

Compound: O=c1oc2c(O)c(O)cc3c(=O)oc4c(O)c(O)cc1c4c23 [ellagic acid, reference compound]
- TPA-induced DNA synthesis [1]: inhibited
- TPA-induced hydroperoxide production [1]: inhibited
- TPA-induced ornithine decarboxylase activity [1]: inhibited
- incidence and yield of skin tumors promoted by TPA [2]: inhibited

Compound: CC1=C(/C=C/C(C)=C/C=C/C(C)=C/CO)C(C)(C)CCC1 [Retinol, reference compound]
- cell proliferation ([3]; 100 microM, HeLa): inhibited cell proliferation completely
- cell proliferation ([4]; 100 microM): inhibited cell proliferation completely

Compound: O=C(/C=C/c1ccc(O)c(O)c1)c1ccc(O)cc1O [Butein]
- growth inhibition ([3]; 10 microM, cell line not stated, more effective on HeLa cells): 30%

Compound: O=C(O)c1cc(O)c(O)c(O)c1 [gallic acid, reference compound]
- cell growth ([3]; HeLa): inhibited
- cell growth [4]: inhibited

Compound: O=C(OC[C@H]1O[C@@H](OC(=O)c2cc(O)c(O)c(OC(=O)c3cc(O)c(O)c(O)c3)c2)[C@H](OC(=O)c2cc(O)c(O)c(OC(=O)c3cc(O)c(O)c(O)c3)c2)[C@@H](OC(=O)c2cc(O)c(O)c(OC(=O)c3cc(O)c(O)c(O)c3)c2)[C@@H]1OC(=O)c1cc(O)c(O)c(OC(=O)c2cc(O)c(O)c(O)c2)c1)c1cc(O)c(O)c(OC(=O)c2cc(O)c(O)c(O)c2)c1 [tannic acid]
- TPA-induced DNA synthesis [1]: inhibited
- TPA-induced hydroperoxide production [1]: inhibited
- TPA-induced ornithine decarboxylase activity [1]: inhibited
- clinical outcome [5]: They have had no relapse and is cured of the cancer
- clinical outcome ([6]; Patient #5, metastatic growth throughout internal organs, terminal, maximum levels): They were cured of the cancer throughout their body
- clinical outcome ([6]; Patient #7, refused further radiation, maximum dosage, no other treatments): Semi-annual checkups reveal no relapse
- outcome of readministered therapy ([6]; Patient #15, carcinoma of the uterus discovered two years after first therapy, readministered one year): They were cured of uterine cancer
- skeletal finding ([7]; Patient #20, metastasis in lungs and ribs, terminal, maximum levels, after 20 days of therapy): regeneration of ribs had occurred
- functional status ([7]; Patient #20, after one month of therapy): the patient had returned to normal daily activities
- survival after therapy ([7]; Patient #20, therapy discontinued at three months): two
- clinical outcome [8]: The lesion healed and the tissue of the tongue was restored to normal
- clinical outcome [9]: They were cured of cancer, and has had no relapse
- carcinoma size by cystoscopic exam ([10]; Patient #21, refused surgery, maximum dosage, first three month check-up): the carcinoma had diminished in size
- clinical outcome ([10]; Patient #21, at 10 months): declared cured of cancer
- clinical outcome [11]: they were cured of disease
- clinical outcome [12]: They were cured of monoblastic Leukemia and has had no relapse
- cell growth ([3]; HeLa): inhibited
- potency relative to gallic acid ([3]; HeLa): twice as potent as its monomer gallic acid
- regular checkups ([13]; Patient #4, maximum therapy along with chemotherapy): all have been negative
- blood work ([13]; Patient #4, maximum therapy simultaneously with 72 chemotherapy dosages): normal
- clinical outcome ([13]; Patient #9, tumor not removed, no chemotherapy or radiation, maximum level, one year): Tumor disappeared and has not returned
- clinical outcome ([14]; Patient #1, inoperative, maximum dosage, first treatment period three months): Cancer was cured
- catheter removal ([14]; Patient #1, two weeks after initiation of therapy): catheter was removed
- outcome of first therapy period ([15]; Patient #8, terminal, one year at maximum dosage): Patient initially showed signs of being cured
- time to relapse after completion of therapy ([15]; Patient #8): two
- outcome of readministered therapy ([15]; Patient #8, year long treatment period after relapse): patient was cured
- time to relapse after completion of therapy ([15]; Patient #12): about 2 years
- outcome of first therapy period ([15]; Patient #12, maximum level, one year): Patient initially showed signs of being cured
- outcome of readministered therapy ([15]; Patient #12, readministered for one year after relapse): Patient was cured and subsequent check-ups have been negative
- overall bloodwork ([15]; Patient #13, no improvement with prior chemotherapy): immediately overall bloodwork returned to normal parameters
- PAH-DNA adduct formation [16]: substantial inhibition
- PAH-induced skin tumorigenesis [16]: substantial inhibition
- epidermal PAH metabolism [16]: substantial inhibition
- potency relative to gallic acid [4]: twice as potent as its monomer gallic acid
- cell growth [4]: inhibited
- clinical outcome (metastatic growth after surgery) ([17]; Patient #2, after surgery on left breast, minimal 3 month period, 10% tannic acid): No additional cancerous growths were detected anywhere in their body
- tumor size ([17]; Patient #3, tumor 5 cms by 5 cms, no surgery, maximum levels, after first three month interval, 10% tannic acid): Tumor diminished in size after first three month interval to the point where it was very difficult to detect by manual examination
- long-term outcome ([17]; Patient #3, therapy continued for one year): Cancer never returned to this day
- clinical outcome ([17]; Patient #6, metastasis in skeletal system, lungs and liver, maximum therapy, one year): they were cured of cancer in all organs
- clinical outcome at end of therapy ([17]; Patient #15, left mammary gland removed, one year): no cancer was detected
- clinical outcome ([17]; Patient #16, metastasis in both lungs and lymph nodes, maximum levels, one and one half year): the Doctor declared patient cured
- incidence and yield of skin tumors promoted by TPA [2]: inhibited
- X-rays at the end of the therapy ([18]; Patient #19, metastasis in hips and ribs, maximum levels, three month period, no other therapy): actual regeneration of skeletal tissue and structure
- time to death of Myeloma after stopping treatment ([18]; Patient #19, refused treatment after three months): four
